# Assay results taken from patent US20240226086A1, “LIQUID PHARMACEUTICAL FORMULATIONS OF QUINOLINES” (TaP Pharmaceuticals, AG, priority 2022, published 2024).
# Structures can show the parent of a compound that is named as a salt. Where two headings read alike, the source gives them in different places.
# Legend:
# [1] = cited from earlier work
# [2] = HCQ sulfate solubility in liquid glycerol formulations, HPLC assay for HCQ; assay type: physicochemical; details: dissolution protocol of Example 1
# Procedure: Liquid HCQ formulations. […] Step 1: 63 g of glycerol were weighed and transferred into a 50 ml beaker with magnetic stir bar and heated to 70° C. while stirred. Step 2: 10 g HCQ sulfate were weighed and slowly added to the 70° C. glycerol of Step 1 with continued stirring and with maintenance of 70° C. until a clear liquid solution was formed. Step 3: 10 g HCQ sulfate was weighed and slowly added to resultant clear liquid solution of Step 3 with continued stirring and with maintenance of 70° C. until a clear liquid solution was formed. Step 4: the resultant clear liquid solution of Step 4 was cooled to room temperature.
# HPLC steps. Step 1. […] The chromatogram was recorded and used to identify any peak eluting at the retention time of major peaks. […] The chromatogram was recorded and used to identify the HCQ peak and calculate its signal to noise ratio. […] The chromatogram was recorded and used to identify HCQ and HCQ-n-oxide peaks and the resolution between those peaks was calculated. […] The chromatograms were recorded and used to calculate the average and % RSD for the HCQ peak area responses obtained from the six replicate injections of standard solution. The tailing factor was determined. […] The chromatograms were recorded and used to calculate average peak area responses of the HCQ obtained from the two replicate injections of standard check solution. The similarity factor was calculated. […]
structure (smiles),measurement,setting,value
"CCN(CCO)CCCC(C)Nc1ccnc2cc(Cl)ccc12 (centres unmarked) [HCQ, 2-[[4-[(7-Chloro-4-quinolyl)amino]pentyl]ethylamino] ethanol sulfate (1:1)]","Solubility, Inference as USP",[1]; solvent Alcohol,Practically insoluble or slightly soluble
same,"Solubility, Inference as USP",[1]; solvent Chloroform,Practically insoluble or slightly soluble
same,"Solubility, Inference as USP",[1]; solvent Dimethylformamide,Sparingly soluble (10-33)
same,"Solubility, Inference as USP",[1]; solvent Dimethylsulfoxide,Insoluble or sparingly soluble
same,"Solubility, Inference as USP",[1]; solvent Ethanol,Sparingly soluble or insoluble
same,"Solubility, Inference as USP",[1]; solvent Ether,Practically insoluble or very slightly soluble
same,"Solubility, Inference as USP",[1]; solvent Glycerol,Very slightly soluble (0.1-1)
same,HCQ dissolved in glycerol,[2],273 mg/mL
